Laboratory results reported in the NIST ThermoML archive (doi:10.1021/acs.jced.8b00692).

Experiment: xn = mol fraction of the nth substance listed
Conditions: 102 kPa, Liquid; for viscosity: Concentric cylinders viscometry; for speed of sound: Frequency=3 MHz, Single path-length method; for mass density: Vibrating tube method

CCCC1CCCCC1 [1-cyclohexylpropane] + CCCCCCCCCCCCCCCC
Conditions | mass density [kg/m3] | speed of sound [m/s] | viscosity [mPa·s]
293.15 K, x1 = 0.2001 | 775.57 | 1349.9 | 2.9
293.15 K, x1 = 0.4008 | 778.35 | 1341.6 | 2.35
293.15 K, x1 = 0.5001 | 779.98 | 1336.9 | 2.11
293.15 K, x1 = 0.6009 | 781.97 | 1331.7 | 1.85
293.15 K, x1 = 0.8301 | 787.65 | 1318.8 | 1.34
293.15 K, x1 = 1 | 793.54 | 1307.8 | 0.996
303.15 K, x1 = 0.2001 | 768.58 | 1312.1 | 2.34
303.15 K, x1 = 0.4008 | 771.27 | 1303.8 | 1.94
303.15 K, x1 = 0.5001 | 772.84 | 1298.4 | 1.74
303.15 K, x1 = 0.6009 | 774.74 | 1293.3 | 1.55
303.15 K, x1 = 0.8301 | 780.16 | 1279.2 | 1.14
303.15 K, x1 = 1 | 785.73 | 1266.2 | 0.86
313.15 K, x1 = 0.2001 | 761.59 | 1275.2 | 1.93
313.15 K, x1 = 0.4008 | 764.18 | 1266.6 | 1.61
313.15 K, x1 = 0.5001 | 765.69 | 1260.8 | 1.46
313.15 K, x1 = 0.6009 | 767.5 | 1255.6 | 1.31
313.15 K, x1 = 0.8301 | 772.64 | 1240.3 | 0.975
313.15 K, x1 = 1 | 777.9 | 1225.6 | 0.75
323.15 K, x1 = 0.2001 | 754.61 | 1239 | 1.61
323.15 K, x1 = 0.4008 | 757.08 | 1230 | 1.37
323.15 K, x1 = 0.5001 | 758.53 | 1224 | 1.25
323.15 K, x1 = 0.6009 | 760.24 | 1218.5 | 1.13
323.15 K, x1 = 0.8301 | 765.09 | 1202 | 0.858
323.15 K, x1 = 1 | 770.04 | 1185.9 | 0.663
333.15 K, x1 = 0.2001 | 747.61 | 1203.8 | 1.37
333.15 K, x1 = 0.4008 | 749.96 | 1194.3 | 1.18
333.15 K, x1 = 0.5001 | 751.33 | 1188 | 1.07
333.15 K, x1 = 0.6009 | 752.95 | 1182.1 | 0.97
333.15 K, x1 = 0.8301 | 757.51 | 1164.5 | 0.747
333.15 K, x1 = 1 | 762.12 | 1147.3 | 0.584
343.15 K, x1 = 0.2001 | 740.6 | – | 1.19
343.15 K, x1 = 0.4008 | 742.9 | – | 1.03
343.15 K, x1 = 0.5001 | 744.1 | – | 0.946
343.15 K, x1 = 0.6009 | 745.6 | – | 0.863
343.15 K, x1 = 0.8301 | 749.8 | – | 0.673
343.15 K, x1 = 1 | 754.2 | – | 0.544
353.15 K, x1 = 0.2001 | 733.6 | – | 1.02
353.15 K, x1 = 0.4008 | 735.7 | – | 0.905
353.15 K, x1 = 0.5001 | 736.9 | – | 0.834
353.15 K, x1 = 0.6009 | 738.3 | – | 0.764
353.15 K, x1 = 0.8301 | 742.2 | – | 0.594
353.15 K, x1 = 1 | 746.1 | – | 0.477
363.15 K, x1 = 0.2001 | 726.5 | – | 0.918
363.15 K, x1 = 0.4008 | 728.5 | – | 0.805
363.15 K, x1 = 0.5001 | 729.5 | – | 0.746
363.15 K, x1 = 0.6009 | 730.8 | – | 0.685
363.15 K, x1 = 0.8301 | 734.6 | – | 0.503
363.15 K, x1 = 1 | 738 | – | 0.452

CCCCCCCCCC1CCCCC1 [nonylcyclohexane] + CCCCCCCCCCCCCCCC
Conditions | mass density [kg/m3] | speed of sound [m/s] | viscosity [mPa·s]
293.15 K, x1 = 0.2005 | 781.15 | 1363.9 | 3.58
293.15 K, x1 = 0.4001 | 789.28 | 1371.3 | 3.72
293.15 K, x1 = 0.5002 | 793.52 | 1375.2 | 3.79
293.15 K, x1 = 0.5998 | 797.86 | 1379.1 | 3.89
293.15 K, x1 = 0.8002 | 806.91 | 1387.3 | 4.07
293.15 K, x1 = 1 | 816.41 | 1397.2 | 4.34
303.15 K, x1 = 0.2005 | 774.24 | 1326.7 | 2.84
303.15 K, x1 = 0.4001 | 782.39 | 1334.2 | 2.95
303.15 K, x1 = 0.5002 | 786.64 | 1338.1 | 3
303.15 K, x1 = 0.5998 | 790.99 | 1342 | 3.06
303.15 K, x1 = 0.8002 | 800.06 | 1350.2 | 3.2
303.15 K, x1 = 1 | 809.57 | 1359.6 | 3.39
313.15 K, x1 = 0.2005 | 767.33 | 1290.2 | 2.3
313.15 K, x1 = 0.4001 | 775.51 | 1297.7 | 2.38
313.15 K, x1 = 0.5002 | 779.77 | 1301.6 | 2.43
313.15 K, x1 = 0.5998 | 784.12 | 1305.6 | 2.47
313.15 K, x1 = 0.8002 | 793.21 | 1313.8 | 2.58
313.15 K, x1 = 1 | 802.74 | 1322.9 | 2.72
323.15 K, x1 = 0.2005 | 760.43 | 1254.4 | 1.9
323.15 K, x1 = 0.4001 | 768.63 | 1261.9 | 1.96
323.15 K, x1 = 0.5002 | 772.9 | 1265.8 | 2
323.15 K, x1 = 0.5998 | 777.25 | 1269.8 | 2.03
323.15 K, x1 = 0.8002 | 786.35 | 1278.1 | 2.12
323.15 K, x1 = 1 | 795.8 | 1287.1 | 2.22
333.15 K, x1 = 0.2005 | 753.54 | 1219.5 | 1.6
333.15 K, x1 = 0.4001 | 761.74 | 1226.9 | 1.65
333.15 K, x1 = 0.5002 | 766.02 | 1230.9 | 1.68
333.15 K, x1 = 0.5998 | 770.38 | 1234.9 | 1.7
333.15 K, x1 = 0.8002 | 779.49 | 1243.4 | 1.77
333.15 K, x1 = 1 | 789.05 | 1252.2 | 1.85
343.15 K, x1 = 0.2005 | 746.6 | – | 1.38
343.15 K, x1 = 0.4001 | 754.9 | – | 1.4
343.15 K, x1 = 0.5002 | 759.2 | – | 1.44
343.15 K, x1 = 0.5998 | 763.6 | – | 1.45
343.15 K, x1 = 0.8002 | 772.7 | – | 1.5
343.15 K, x1 = 1 | 782.2 | – | 1.57
353.15 K, x1 = 0.2005 | 739.7 | – | 1.18
353.15 K, x1 = 0.4001 | 748 | – | 1.21
353.15 K, x1 = 0.5002 | 752.3 | – | 1.23
353.15 K, x1 = 0.5998 | 756.8 | – | 1.25
353.15 K, x1 = 0.8002 | 765.8 | – | 1.3
353.15 K, x1 = 1 | 775.4 | – | 1.35
363.15 K, x1 = 0.2005 | 732.7 | – | 1.05
363.15 K, x1 = 0.4001 | 741.1 | – | 1.06
363.15 K, x1 = 0.5002 | 745.4 | – | 1.09
363.15 K, x1 = 0.5998 | 749.8 | – | 1.09
363.15 K, x1 = 0.8002 | 758.9 | – | 1.13
363.15 K, x1 = 1 | 768.5 | – | 1.2
373.15 K, x1 = 0.2005 | 725.7 | – | 0.908
373.15 K, x1 = 0.4001 | 734.2 | – | 0.931
373.15 K, x1 = 0.5002 | 738.5 | – | 0.944
373.15 K, x1 = 0.5998 | 742.9 | – | 0.96
373.15 K, x1 = 0.8002 | 752 | – | 1
373.15 K, x1 = 1 | 761.6 | – | 1.03
